For the assay, the system named is P388 leukemia ip, CD2F1 mice, survival T/C. The experiment in a line: NCI In Vivo Anticancer Drug Screen. Data for tumor model P388 Leukemia (intraperitoneal) in CD2F1 (CDF1) mice. The conditions noted are these: endpoint: median survival time, higher = longer survival. The procedure, abridged:
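Mice carrying the transplanted tumor received test compound or vehicle. Survival was recorded in each group, and the value is the treated-group measurement divided by that of the vehicle-treated control group.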

[1] abbreviates: dose: 100.0 mg/kg/injection, schedule: Q04DX003 (ip), vehicle: saline with Tween-80.
[2] abbreviates: dose: 200.0 mg/kg/injection, schedule: Q04DX003 (ip), vehicle: saline with Tween-80.
Setting [3] is: dose: 400.0 mg/kg/injection, schedule: Q04DX003 (ip), vehicle: saline with Tween-80.
[4] abbreviates: dose: 50.0 mg/kg/injection, schedule: Q01DX009 (ip), vehicle: saline with Tween-80.
Setting [5] is: dose: 50.0 mg/kg/injection, schedule: Q01DX009 (ip), vehicle: Klucel (hydroxypropylcellulose) (HPC).
Setting [6] is: dose: 100.0 mg/kg/injection, schedule: Q01DX009 (ip), vehicle: Klucel (hydroxypropylcellulose) (HPC).
The mark [7] stands for this setting: dose: 25.0 mg/kg/injection, schedule: Q01DX009 (ip), vehicle: saline with Tween-80.
Where [8] appears, read: dose: 100.0 mg/kg/injection, schedule: Q01DX009 (ip), vehicle: saline with Tween-80.

Each structure is given as a SMILES string. Values joined by “and” are separate entries in the source; they are usually repeats but may differ in a detail not shown here. Equal values may be shown once. Toxic doses and inconclusive results are not listed.

Consider `CCOC(=O)c1cnc(SCc2ccccc2)[nH]c1=O`, for which the T/C by setting is: under setting [1], 100 % of control; under setting [2], 90 % of control; under setting [3], 100 % of control.
As for `CCn1c2ccccc2c2cc(N=Nc3cc[n+]([O-])c4c(O)cccc34)ccc21`, the T/C reads like this: (dose: 5.0 mg/kg/injection, schedule: Q01DX009 (ip), vehicle: saline with Tween-80) 110 % of control; (dose: 10.0 mg/kg/injection, schedule: Q01DX009 (ip), vehicle: saline with Tween-80) 102 % of control; (dose: 20.0 mg/kg/injection, schedule: Q01DX009 (ip), vehicle: saline with Tween-80) 106 % of control; (dose: 40.0 mg/kg/injection, schedule: Q01DX009 (ip), vehicle: saline with Tween-80) 107 % of control; under setting [4], 86 % of control.
Consider `CCc1ncc(C(C)(O)c2ccccc2)n1Cc1ccccc1` (stereo unspecified), for which the T/C (dose: 60.0 mg/kg/injection, schedule: Q01DX005 (ip), vehicle: Klucel (hydroxypropylcellulose) (HPC)) was 100 % of control; the T/C (dose: 120.0 mg/kg/injection, schedule: Q01DX005 (ip), vehicle: Klucel (hydroxypropylcellulose) (HPC)) was 102 % of control; the T/C (dose: 240.0 mg/kg/injection, schedule: Q01DX005 (ip), vehicle: Klucel (hydroxypropylcellulose) (HPC)) was 99 % of control.
`CCc1nc(N)nc(N)c1-c1ccc(Cl)c([N+](=O)[O-])c1`: the T/C reads like this: (dose: 0.78 mg/kg/injection, schedule: Q01DX009 (ip), vehicle: distilled water + Tween-80) 105 % of control; (dose: 3.13 mg/kg/injection, schedule: Q01DX009 (ip), vehicle: distilled water + Tween-80) 120 % of control and 123 % of control; (dose: 6.25 mg/kg/injection, schedule: Q01DX009 (ip), vehicle: distilled water + Tween-80) 170 % of control; (dose: 12.5 mg/kg/injection, schedule: Q01DX009 (ip), vehicle: distilled water + Tween-80) 163 % of control.
Turning to `CCCCN1C(=O)N/C(=C/C(=O)OCC)C1=O`, the T/C is, setting by setting: (dose: 25.0 mg/kg/injection, schedule: Q01DX009 (ip), vehicle: Klucel (hydroxypropylcellulose) (HPC)) 93 % of control; under setting [5], 103 % of control; under setting [6], 102 % of control.
Take `O=C(Nc1ccc([N+](=O)[O-])cc1)OCCI`: the T/C is, setting by setting: under setting [1], 101 % of control; under setting [2], 92 % of control; under setting [3], 92 % of control.
In the case of `Clc1cc(Cl)c(OCC#CI)c(Cl)c1Cl`, the T/C under setting [4] was 86 % of control, the T/C under setting [1] is 109 % of control and the T/C under setting [2] is 100 % of control.
Take `C=CC1CC[N-]CC1.[Cl][Cu][Cl]`: the T/C (dose: 7.5 mg/kg/injection, schedule: Q01DX005 (ip), vehicle: saline) is 98 % of control and the T/C (dose: 15.0 mg/kg/injection, schedule: Q01DX005 (ip), vehicle: saline) is 100 % of control.
Take `O=C(OC(=O)c1cccc(-c2ccccc2)c1)c1cccc(-c2ccccc2)c1`: the T/C is 104 % of control (dose: 100.0 mg/kg/injection, schedule: Q04DX003 (ip), vehicle: Klucel (hydroxypropylcellulose) (HPC)); 90 % of control (dose: 200.0 mg/kg/injection, schedule: Q04DX003 (ip), vehicle: Klucel (hydroxypropylcellulose) (HPC)); 90 % of control (dose: 400.0 mg/kg/injection, schedule: Q04DX003 (ip), vehicle: Klucel (hydroxypropylcellulose) (HPC)).
As for `OC1OCC(Cc2ccc3c(c2)OCO3)C1Cc1ccc2c(c1)OCO2` (stereo unspecified), the T/C (dose: 100.0 mg/kg/injection, schedule: Q04DX003 (ip), vehicle: other) was 95 % of control; the T/C (dose: 200.0 mg/kg/injection, schedule: Q04DX003 (ip), vehicle: other) is 90 % of control; the T/C (dose: 400.0 mg/kg/injection, schedule: Q04DX003 (ip), vehicle: other) is 90 % of control.
On to `CCCc1c(OC)c(OC)c2c(c1C(C)=O)OCO2`, for which the T/C is 100 % of control (dose: 50.0 mg/kg/injection, schedule: Q01DX005 (ip), vehicle: saline with Tween-80); 100 % of control (dose: 100.0 mg/kg/injection, schedule: Q01DX005 (ip), vehicle: saline with Tween-80); 104 % of control (dose: 200.0 mg/kg/injection, schedule: Q01DX005 (ip), vehicle: saline with Tween-80).
`CCOC(=O)C(F)C(Br)C(=O)OCC` (stereo unspecified): the T/C runs as follows: under setting [7], 105 % of control and 120 % of control; under setting [4], 117 % of control; under setting [8], 123 % of control.
`O=[N+]([O-])c1ccc(-c2nc(CN3CCOCC3)cs2)s1`: the T/C under setting [7] is 98 % of control, the T/C under setting [4] is 103 % of control and the T/C under setting [8] is 106 % of control.
As for `CCc1ccc(C2=C(O)C(=O)C(c3ccc(CC)cc3)=C(O)C2=O)cc1`, the T/C runs as follows: (dose: 6.25 mg/kg/injection, schedule: Q01DX009 (ip), vehicle: saline with Tween-80) 100 % of control; (dose: 12.5 mg/kg/injection, schedule: Q01DX009 (ip), vehicle: saline with Tween-80) 110 % of control; (dose: 33.0 mg/kg/injection, schedule: Q01DX009 (ip), vehicle: saline with Tween-80) 163 % of control.
Regarding `CN(C)CCc1ccc2ccc3cccc4ccc1c2c34`, the T/C under setting [4] was 107 % of control; the T/C under setting [8] is 102 % of control; the T/C (dose: 200.0 mg/kg/injection, schedule: Q01DX009 (ip), vehicle: saline with Tween-80) is 108 % of control.
Consider `O=C(O)C1CSC(c2ccncc2)N1` (stereo unspecified), for which the T/C is 96 % of control and 97 % of control (dose: 50.0 mg/kg/injection, schedule: Q01DX009 (ip), vehicle: saline); 96 % of control (dose: 100.0 mg/kg/injection, schedule: Q01DX009 (ip), vehicle: saline); 94 % of control (dose: 200.0 mg/kg/injection, schedule: Q01DX009 (ip), vehicle: saline).
On to `CC1(C)NC(=O)C2(CC(O)C(O)C(OC(=O)c3ccccc3)C2)O1` (stereo unspecified), for which the T/C is 102 % of control (dose: 25.0 mg/kg/injection, schedule: Q01DX005 (ip), vehicle: saline); 94 % of control (dose: 50.0 mg/kg/injection, schedule: Q01DX005 (ip), vehicle: saline); 99 % of control (dose: 100.0 mg/kg/injection, schedule: Q01DX005 (ip), vehicle: saline).
Regarding `COC(=O)C1C(C)(C)N=NC1(C)C`, the T/C is, setting by setting: (dose: 12.5 mg/kg/injection, schedule: Q01DX009 (ip), vehicle: other) 113 % of control; (dose: 25.0 mg/kg/injection, schedule: Q01DX009 (ip), vehicle: other) 115 % of control; (dose: 50.0 mg/kg/injection, schedule: Q01DX009 (ip), vehicle: other) 105 % of control; (dose: 100.0 mg/kg/injection, schedule: Q01DX009 (ip), vehicle: other) 103 % of control; (dose: 200.0 mg/kg/injection, schedule: Q01DX009 (ip), vehicle: other) 108 % of control.
Regarding `O=C(Sc1ccccc1)N1CCN(C(=O)Sc2ccccc2)CC1`, the T/C runs as follows: under setting [5], 100 % of control; under setting [6], 100 % of control; (dose: 200.0 mg/kg/injection, schedule: Q01DX009 (ip), vehicle: Klucel (hydroxypropylcellulose) (HPC)) 109 % of control.

The values above are taken from PubChem BioAssay AID330 (DTP/NCI, 2004).
